Measurements taken from US12195470B2, “7-phenoxy-N-(3-azabicyclo[3.2.1]octan-8-yl-6,7-dihydro-5H-pyrrolo[1,2-b][1,2,4]triazol-2-amine derivatives and related compounds as gamma- secretase modulators for the treatment of alzheimer's disease” (Hoffmann-La Roche Inc., priority 2018, dated 2025).

Target: γ-secretase (Homo sapiens, UniProt P49768)
Test: Cellular γ-secretase assay (inhibition of Aβ42 secretion, AlphaLisa)
Assay type: cell-based
Conditions: human neuroglioma H4 cells overexpressing human APP695 Swedish double mutation, 24 h compound incubation
Protocol: 2.1) Assay Procedure: Cellular γ-Secretase Assay Human neuroglioma H4 cells overexpressing human APP695 with the Swedish double mutation (K595N/M596L) were plated at 30,000 cells/well/100 μL in 96-well plates in IMDM containing 10% FCS, 0.2 mg/L Hygromycin B and incubated at 37° C., 5% CO2. 3-4 h post plating, compounds are a diluted in media and 50 μL is added as 1.5-fold concentrate to achieve the final concentration. Compound incubation is performed for 24 h. Final doses typically range from 4 μM down to 0.0013 μM in half-log steps resulting in an eight-point dose response curve. Appropriate controls using vehicle only and reference compound were applied to this assay. The final concentration of Me2SO was 0.4%. After incubation at 37° C., 5% CO2, the supernatant was subjected to quantification of secreted Aβ42 by the means of an AlphaLisa® assay kit (Human Amyloid beta 1-42 Kit, Perkin Elmer Inc.). 20 μL of the cell culture supernatant was transferred to an assay plate. Then 10 μL of a mixture of the AlphaLisa® coupled capture antibody and the biotinylated detection antibody was added and incubated for 3 h at RT while softly shaking the assay plate. After a further addition of 20 μL of the Donor beads the assay plate was incubated for 30 min at RT and constant shaking without exposure to direct light. The assay plate was then read on a Paradigm AlphaLisa® Reader using the build-in program with excitation at 680 nm and emission at 570 nm. The measured signals were then used to calculate IC50 values for inhibition of Aβ42 secretion by nonlinear regression fit analysis using XLfit 5.3 software (from IDBS Ltd).

IC50	SMILES
62.7 nM	Cc1cc(N2C[C@H]3CC[C@@H](C2)[C@@H]3Nc2nc3n(n2)CCC[C@@H]3Oc2cc(F)cc(Cl)c2)cnn1 (single isomer, unassigned) [Example 14]
12.8 nM	COc1cc(N2C[C@H]3CC[C@@H](C2)[C@@H]3Nc2nc3n(n2)CC[C@H]3Oc2cc(F)cc(F)c2)cnn1 (single isomer, unassigned) [Example 1]
10.6 nM	COc1cc(N2C[C@H]3CC[C@@H](C2)[C@@H]3Nc2nc3n(n2)CCC[C@H]3Oc2cc(F)cc(F)c2)cnn1 (single isomer, unassigned) [Example 9]
15.6 nM	Cc1cc(N2C[C@H]3CC[C@@H](C2)[C@@H]3Nc2nc3n(n2)CC[C@H]3Oc2cc(F)cc(F)c2)ncn1 (single isomer, unassigned) [Example 39]
51.9 nM	Cc1cc(N2C[C@H]3CC[C@@H](C2)[C@@H]3Nc2nc3n(n2)CC[C@@H]3Oc2cccc(Cl)c2)ncn1 (single isomer, unassigned) [Example 30]
21.6 nM	Cc1cc(N2C[C@H]3CC[C@@H](C2)[C@@H]3Nc2nc3n(n2)CCC[C@H]3Oc2ccc(F)cc2F)ncn1 (single isomer, unassigned) [Example 37]
15.7 nM	COc1cc(N2C[C@H]3CC[C@@H](C2)[C@@H]3Nc2nc3n(n2)CCC[C@H]3Oc2ccccc2Cl)cnn1 (single isomer, unassigned) [Example 25]
73.8 nM	COc1cc(N2C[C@H]3CC[C@@H](C2)[C@@H]3Nc2nc3n(n2)CC[C@@H]3Oc2cc(F)cc(F)c2)cnn1 (single isomer, unassigned) [Example 2]
65.8 nM	Cc1cc(N2C[C@H]3CC[C@@H](C2)[C@@H]3Nc2nc3n(n2)CCCC[C@@H]3Oc2ccc(F)c(F)c2F)ncn1 (single isomer, unassigned) [Example 62]
71.4 nM	Cc1cc(N2C[C@H]3CC[C@@H](C2)[C@@H]3Nc2nc3n(n2)CC[C@@H]3Oc2ccc(Cl)cc2)ncn1 (single isomer, unassigned) [Example 28]
